Experimental findings from ChEMBL document CHEMBL1201862, “PubChem BioAssay data set” (2004) are described below.

The target of test [1] is T1, Long-chain-fatty-acid--AMP ligase FadD28 (Mycobacterium tuberculosis, UniProt P9WQ59).
T1 sequence (P9WQ59 whole entry): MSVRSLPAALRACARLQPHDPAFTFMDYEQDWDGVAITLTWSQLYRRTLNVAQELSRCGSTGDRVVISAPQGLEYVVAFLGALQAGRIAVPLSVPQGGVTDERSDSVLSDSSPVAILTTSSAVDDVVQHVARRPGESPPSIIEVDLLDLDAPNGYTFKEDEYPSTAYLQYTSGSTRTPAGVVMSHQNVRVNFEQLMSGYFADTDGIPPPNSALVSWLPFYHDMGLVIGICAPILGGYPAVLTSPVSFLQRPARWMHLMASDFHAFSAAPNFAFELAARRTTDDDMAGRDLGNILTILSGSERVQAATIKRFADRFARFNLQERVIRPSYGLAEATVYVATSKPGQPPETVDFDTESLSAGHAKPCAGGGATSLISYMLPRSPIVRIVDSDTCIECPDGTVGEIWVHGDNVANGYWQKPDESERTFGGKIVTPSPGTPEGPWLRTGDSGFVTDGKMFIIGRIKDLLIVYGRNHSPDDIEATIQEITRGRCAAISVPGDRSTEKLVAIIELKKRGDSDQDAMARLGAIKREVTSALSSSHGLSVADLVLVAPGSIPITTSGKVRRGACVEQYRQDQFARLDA
The experiment in a line: Fluorescence polarization aasay to screen for inhibitors that compete for the binding of FadD28 to a bisubstrate Measured in Biochemical System Using Plate Reader - 2147-01_Inhibitor_Dose_CherryPick_Activity. It counts as functional, Mycobacterium tuberculosis H37Rv. Background: Fluorescence polarisation rises when a labelled molecule tumbles more slowly, as on binding a larger partner.

For a further test, the target named is Albumin (Bos taurus, UniProt P02769). The test can be described thus: Counterscreen for inhibitors of T-cell receptor (TCR)-CD3 interaction: Fluorescence-based biochemical high throughput dose response assay to identify inhibitors of T-cell receptor (TCR)-CD3 interaction using a TAMRA-labeled BSA probe. It counts as functional.
Chain of Albumin (P02769 whole entry): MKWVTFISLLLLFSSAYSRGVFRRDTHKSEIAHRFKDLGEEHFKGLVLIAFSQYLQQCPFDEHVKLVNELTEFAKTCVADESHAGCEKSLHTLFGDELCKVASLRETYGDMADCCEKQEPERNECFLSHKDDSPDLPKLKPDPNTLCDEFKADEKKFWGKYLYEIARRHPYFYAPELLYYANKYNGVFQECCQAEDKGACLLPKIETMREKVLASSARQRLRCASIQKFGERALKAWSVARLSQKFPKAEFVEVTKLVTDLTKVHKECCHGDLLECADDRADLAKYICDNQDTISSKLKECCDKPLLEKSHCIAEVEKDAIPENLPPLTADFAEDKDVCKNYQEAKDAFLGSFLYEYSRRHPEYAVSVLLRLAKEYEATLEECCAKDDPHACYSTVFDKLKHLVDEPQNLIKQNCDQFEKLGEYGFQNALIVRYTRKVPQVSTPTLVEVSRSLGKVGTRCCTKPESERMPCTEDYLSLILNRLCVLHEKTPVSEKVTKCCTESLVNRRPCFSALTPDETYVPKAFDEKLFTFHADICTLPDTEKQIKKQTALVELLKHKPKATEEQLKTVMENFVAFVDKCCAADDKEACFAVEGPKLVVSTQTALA
Test [2] has as its target T2, Histone-lysine N-methyltransferase NSD2 (Homo sapiens, UniProt O96028).
T2 sequence (O96028 whole entry): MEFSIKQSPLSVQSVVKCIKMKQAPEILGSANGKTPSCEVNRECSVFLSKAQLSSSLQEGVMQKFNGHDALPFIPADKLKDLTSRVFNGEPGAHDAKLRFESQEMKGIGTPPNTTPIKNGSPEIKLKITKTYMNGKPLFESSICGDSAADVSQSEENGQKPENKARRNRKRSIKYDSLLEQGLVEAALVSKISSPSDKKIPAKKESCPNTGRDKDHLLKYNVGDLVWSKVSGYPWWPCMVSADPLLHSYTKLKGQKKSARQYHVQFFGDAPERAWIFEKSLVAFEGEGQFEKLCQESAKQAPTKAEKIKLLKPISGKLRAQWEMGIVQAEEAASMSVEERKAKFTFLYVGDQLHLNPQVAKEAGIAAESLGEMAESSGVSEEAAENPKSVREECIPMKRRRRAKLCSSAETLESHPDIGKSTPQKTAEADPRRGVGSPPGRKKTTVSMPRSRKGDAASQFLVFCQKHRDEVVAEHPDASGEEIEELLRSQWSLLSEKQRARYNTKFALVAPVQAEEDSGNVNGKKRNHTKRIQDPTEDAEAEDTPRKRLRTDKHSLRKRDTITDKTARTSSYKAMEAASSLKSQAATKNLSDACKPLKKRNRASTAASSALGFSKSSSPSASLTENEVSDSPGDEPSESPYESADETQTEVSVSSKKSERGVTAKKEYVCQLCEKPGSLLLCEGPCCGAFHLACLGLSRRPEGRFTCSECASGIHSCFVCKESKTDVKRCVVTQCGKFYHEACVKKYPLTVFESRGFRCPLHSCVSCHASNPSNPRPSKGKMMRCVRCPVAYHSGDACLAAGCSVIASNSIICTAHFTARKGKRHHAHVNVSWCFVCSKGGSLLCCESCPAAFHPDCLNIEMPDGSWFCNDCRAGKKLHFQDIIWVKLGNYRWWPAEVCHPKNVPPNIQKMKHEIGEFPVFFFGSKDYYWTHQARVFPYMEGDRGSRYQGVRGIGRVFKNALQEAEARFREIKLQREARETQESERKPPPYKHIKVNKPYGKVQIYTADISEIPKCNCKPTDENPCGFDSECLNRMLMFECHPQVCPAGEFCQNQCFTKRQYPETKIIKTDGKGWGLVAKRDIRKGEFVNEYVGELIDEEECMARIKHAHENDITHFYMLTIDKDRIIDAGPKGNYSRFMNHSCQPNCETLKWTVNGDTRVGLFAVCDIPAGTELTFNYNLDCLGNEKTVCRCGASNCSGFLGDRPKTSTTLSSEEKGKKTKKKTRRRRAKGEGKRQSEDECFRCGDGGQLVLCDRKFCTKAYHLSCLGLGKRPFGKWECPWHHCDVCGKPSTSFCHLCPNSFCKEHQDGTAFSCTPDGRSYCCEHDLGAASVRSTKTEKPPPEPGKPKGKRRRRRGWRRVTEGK
The format is biochemical.

In another test the target is Genome polyprotein (dengue virus type 2, UniProt P29990). The test can be described thus: flavivirus cap methylation enzyme inhibition – biochemical, confirmation dose response, primary screen (AID 588689). The format is functional.
Chain of Genome polyprotein (P29990 2492-3391 limits assumed): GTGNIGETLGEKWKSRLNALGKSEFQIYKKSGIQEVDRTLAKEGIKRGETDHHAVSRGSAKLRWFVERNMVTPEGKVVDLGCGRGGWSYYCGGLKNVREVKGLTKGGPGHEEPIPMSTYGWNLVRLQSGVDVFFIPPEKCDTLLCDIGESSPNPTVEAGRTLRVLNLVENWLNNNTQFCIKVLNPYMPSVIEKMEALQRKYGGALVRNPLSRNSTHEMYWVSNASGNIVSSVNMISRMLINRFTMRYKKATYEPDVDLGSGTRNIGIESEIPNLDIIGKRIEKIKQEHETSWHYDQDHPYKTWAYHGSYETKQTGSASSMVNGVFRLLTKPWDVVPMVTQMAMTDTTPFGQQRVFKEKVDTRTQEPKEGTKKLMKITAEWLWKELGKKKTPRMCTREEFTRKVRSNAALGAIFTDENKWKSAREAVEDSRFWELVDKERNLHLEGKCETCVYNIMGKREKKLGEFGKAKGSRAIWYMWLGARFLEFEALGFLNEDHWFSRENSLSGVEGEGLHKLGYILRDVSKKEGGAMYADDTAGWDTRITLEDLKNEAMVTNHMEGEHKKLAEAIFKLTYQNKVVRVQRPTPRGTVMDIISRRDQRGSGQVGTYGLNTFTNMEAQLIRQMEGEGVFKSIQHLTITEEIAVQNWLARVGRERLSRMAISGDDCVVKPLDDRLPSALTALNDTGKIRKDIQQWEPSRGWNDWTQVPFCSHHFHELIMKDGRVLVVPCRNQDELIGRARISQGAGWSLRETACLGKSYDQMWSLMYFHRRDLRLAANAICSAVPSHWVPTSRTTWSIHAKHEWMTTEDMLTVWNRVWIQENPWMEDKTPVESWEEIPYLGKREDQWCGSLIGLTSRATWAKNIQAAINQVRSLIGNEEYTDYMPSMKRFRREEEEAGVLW
For test [3], the target named is T3, High affinity choline transporter 1 (Homo sapiens, UniProt Q9GZV3).
T3 sequence (Q9GZV3 whole entry): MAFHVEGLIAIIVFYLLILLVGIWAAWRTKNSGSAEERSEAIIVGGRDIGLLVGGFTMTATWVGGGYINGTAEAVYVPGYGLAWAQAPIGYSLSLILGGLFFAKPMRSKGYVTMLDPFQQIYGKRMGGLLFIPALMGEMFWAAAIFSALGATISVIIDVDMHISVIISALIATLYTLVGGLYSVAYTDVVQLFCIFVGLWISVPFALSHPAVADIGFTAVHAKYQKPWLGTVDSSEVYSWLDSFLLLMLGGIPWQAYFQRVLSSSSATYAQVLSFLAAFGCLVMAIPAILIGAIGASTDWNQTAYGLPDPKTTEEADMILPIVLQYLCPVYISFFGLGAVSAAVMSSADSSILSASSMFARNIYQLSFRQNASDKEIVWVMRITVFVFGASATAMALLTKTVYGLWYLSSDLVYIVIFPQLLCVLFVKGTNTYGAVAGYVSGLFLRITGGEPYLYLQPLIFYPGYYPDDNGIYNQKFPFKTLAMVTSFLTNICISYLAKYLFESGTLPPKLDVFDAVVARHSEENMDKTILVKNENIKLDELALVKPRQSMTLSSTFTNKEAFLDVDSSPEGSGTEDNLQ
The experiment in a line: human choline transporter blockers, potency – cell-based, 5-point CRC, membrane potential dye, dose response (AID 504840). The format is functional.

Another test concerns the target Estrogen receptor beta (Homo sapiens, UniProt Q92731).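 Further: recombinant ER-beta bound to coactivator SRC1 peptide in presence of estradiol agonist; inhibitors block coactivator peptide binding and lower the FRET signal.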

Calls of active or inactive are those of the source. Bounds are passed on as bounds.

Chain of Estrogen receptor beta (Q92731 whole entry): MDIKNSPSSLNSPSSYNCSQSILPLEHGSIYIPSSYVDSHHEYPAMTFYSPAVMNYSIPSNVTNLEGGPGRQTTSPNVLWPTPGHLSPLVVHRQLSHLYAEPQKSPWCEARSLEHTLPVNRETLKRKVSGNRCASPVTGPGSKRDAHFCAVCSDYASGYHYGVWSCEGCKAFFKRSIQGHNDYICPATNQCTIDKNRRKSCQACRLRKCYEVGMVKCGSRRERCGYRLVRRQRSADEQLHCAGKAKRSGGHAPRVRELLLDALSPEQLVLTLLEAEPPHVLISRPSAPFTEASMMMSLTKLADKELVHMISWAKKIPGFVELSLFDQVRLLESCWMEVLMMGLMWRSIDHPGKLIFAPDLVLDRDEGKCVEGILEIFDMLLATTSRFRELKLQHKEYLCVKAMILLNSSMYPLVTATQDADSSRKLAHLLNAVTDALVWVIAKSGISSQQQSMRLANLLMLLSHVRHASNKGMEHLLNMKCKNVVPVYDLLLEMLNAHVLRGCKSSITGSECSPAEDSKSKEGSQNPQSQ

As for `CSc1ncc(Cl)c(C(=O)Nc2nnc(SC/C=C/c3ccccc3)s2)n1`, in test [1], the AC50 (usually the concentration giving half of the maximal activity seen) is > 100 µM (inactive).

Turning to `C=CCNC(=S)NNC(=O)c1cccn(Cc2cccc(Cl)c2)c1=O`, the IC50 – broadly, the concentration that gives 50% inhibition – on Albumin is > 94.1 µM (inactive).

Turning to `CNCCCC1Sc2ccccc2Oc2ccccc21` (stereo not given), the AC50 in test [2] is 9.84 µM (active).

Consider `CCCn1nc(NS(=O)(=O)c2cccc3nonc23)c2cc3cccc(C)c3nc21`, for which, in test [1], the AC50 was > 100 µM (inactive). Besides, the figures for the IC50 (on Genome polyprotein; in test [3]) were 39.8 µM (active) and 3.54 µM (active), respectively.

Regarding `CC(=O)c1cccc(NC(=O)NC2CCCCCCC2)c1`, the AC50 in test [1] was > 100 µM (inactive).

On to `O=C(O)CCc1ccc(-c2ccc(Cl)cc2)n1Cc1ccco1`, for which, in test [1], the AC50 was 21.8 µM (active).

For the compound `Cc1cccc(C(=O)NNC(=O)c2ccc(NS(=O)(=O)c3cccs3)cc2)c1C`, the AC50 in test [1] is 43.8 µM (active).

In the case of `CC(C)CSc1nc2c(c(=O)[nH]c(=O)n2C)n1CC(O)COc1cccc2ccccc12` (stereo not given), the IC50 against Estrogen receptor beta is reported as > 50 µM (not active).
